Experimental data: patent US5304474A, “Hydrophobic peptide esters and amides” (Board of Regents, The University of Texas System, priority 1991, dated 1994)

Assays:
[1] = test system: MP-enriched adherent cells (AC); assay: 51Cr release toxicity assay; assay type: cell-based, human
Experimental: (§1) In some experiments, toxicity of Leu-Leu-OMe for a variety of cell populations was assessed by ^51 Cr release In assays where cells obtained from suspension culture were to be used, cells were labeled with Na2^51 CrO4 (ICN, Plainview, N.Y.) for 60-90 minutes at 37° C. and then washed three times. Cells were then suspended in PBS (2.5×10^6 /ml) and incubated in microtiter plates, 50 microL/well with indicated concentrations of Leu-Leu-OMe for 15 minutes at room temperature. […] Following ^51 Cr labeling, wells were thoroughly washed and varying concentrations of Leu-Leu-OMe added in 50 microL PBS and the plates incubated for 15 minutes at room temperature.
(§2) Following such initial serum-free incubations, 200 microL/well of medium RPMI containing 10% FBS were added and the plates incubated for another 4 hours prior to removal of 100 microliters of supernatant. Radioactivity in the supernatant was measured in an auto-gamma scintillation spectrometer (Packard Instrument Co., Downers Grove, Ill.). The percent specific release was calculated from the formula: [formula] in which maximal release refers to cpm obtained in wells containing 50% lysing agent (American Scientific Products, McGraw Park, Ill.) and spontaneous release refers to cpm released by cells incubated in control medium in the absence of Leu-Leu-OMe or the lysing agent.
(§3) In developing the data expressed in FIG. 7, cells (2.5×10^6 /ml) were exposed to the indicated concentrations of Leu-Leu-OMe for 15 minutes at room temperature, then specific ^51 Cr release during the next four hours was assessed.

[2] = test system: T8-enriched population; assay: 51Cr release toxicity assay; assay type: cell-based, human
Experimental: as §1, §2, §3

[3] = test system: T4 enriched T cells; assay: 51Cr release toxicity assay; assay type: cell-based, human
Experimental: as §1, §2, §3

[4] = test system: HS-Sultan; assay: 51Cr release toxicity assay; assay type: cell-based, human; settings: broad range of concentrations
Description: (§4) HS-Sultan, a human plasma cell line (Goldblum et al. (1973) Proc. Seventh Leucocyte Culture Conference, ed by Daguilland, Acad. Press N.Y. pp 15-28), Daudi, a B lymphoblastoid cell line (Klein et al. (1968) Cancer Res. V 28, p 1300), MoLT-4, an acute lymphoblastic T-cell leukemia line (Monowada et al. (1972) J. Nat'l Canc. Inst. V 49, p 891), and U-937, a human monocyte-like cell line (Koren et al. (1979) Nature V 279, p 891) were obtained from the American Type Culture Collection, Rockville, Md. These lines as well as HEp-2 a human epidermoid carcinoma line (a generous gift of Dr. R. Sontheimer, UTHSCD); Currie, a human renal cell carcinoma line (a generous gift of Dr. M. Prager, UTHSCD); and K562, a human erythroleukemia line (a generous gift of Dr. M. Bennett, UTHSCD) were maintained in culture in medium RMPI supplemented with 10% FBS. Human dermal fibroblasts (a generous gift of Dr. T. Geppert, UTHSCD) were serially passaged in culture as well while human umbilical vein endothelial cells (a generous gift of Dr. A. Johnson, UTHSCD) were used after one subculture Epttein Barr virus (EBV) transformed B lymphoblastoid cell lines JM.6 and SM.4 (kindly provided by Dr. J. Moreno, UTHSCD) and cloned EBV transformed B cell lines SDL-G2 and D8-219 (a generous gift of Drs. L. Stein and M. Dosch, Hospital for Sick Children, Toronto, Canada) were maintained in culture in medium RPMI supplemented with 10% FBS.
as §1
as §2, with “agent. Only experiments in which spontaneous release was […] were used for subsequent data interpretation.” for “agent.”
as §3, with “assessed. Data for the EBV transformed lines JM.6, SDL-G2, D8-219, and SM.4, respectively, are shown in order from top to bottom.” for “assessed.”

[5] = test system: EBV-transformed B cell lines or clones; assay: 51Cr release toxicity assay; assay type: cell-based, human
Description: as §4, §1
as §2, with “agent. Only experiments in which spontaneous release was […] were used for subsequent data interpretation.” for “agent.”
as §3, with “assessed. Data for the EBV transformed lines JM.6, SDL-G2, D8-219, and SM.4, respectively, are shown in order from top to bottom.” for “assessed.”

[6] = test system: Daudi; assay: 51Cr release toxicity assay; assay type: cell-based, human; settings: broad range of concentrations
Description: as §4, §1
as §2, with “agent. Only experiments in which spontaneous release was […] were used for subsequent data interpretation.” for “agent.”
as §3, with “assessed. Data for the EBV transformed lines JM.6, SDL-G2, D8-219, and SM.4, respectively, are shown in order from top to bottom.” for “assessed.”

[7] = test system: U937; assay: 51Cr release toxicity assay; assay type: cell-based, human
Description: as §4, §1
as §2, with “agent. Only experiments in which spontaneous release was […] were used for subsequent data interpretation.” for “agent.”
as §3, with “assessed. Data for the EBV transformed lines JM.6, SDL-G2, D8-219, and SM.4, respectively, are shown in order from top to bottom.” for “assessed.”

[8] = test system: MoLT-4; assay: 51Cr release toxicity assay; assay type: cell-based, human; settings: broad concentration range
Description: as §4, §1
as §2, with “agent. Only experiments in which spontaneous release was […] were used for subsequent data interpretation.” for “agent.”
as §3, with “assessed. Data for the EBV transformed lines JM.6, SDL-G2, D8-219, and SM.4, respectively, are shown in order from top to bottom.” for “assessed.”

[9] = test system: K562; assay: 51Cr release toxicity assay; assay type: cell-based, human
Description: as §4, §1
as §2, with “agent. Only experiments in which spontaneous release was […] were used for subsequent data interpretation.” for “agent.”
as §3, with “assessed. Data for the EBV transformed lines JM.6, SDL-G2, D8-219, and SM.4, respectively, are shown in order from top to bottom.” for “assessed.”

[10] = test system: hemopoietic stem cells; assay: Stem cell function: splenic 125I-UdR uptake 5 d after transfer into irradiated syngeneic recipients; assay type: in vivo, mice; settings: 250 micro-M
Experimental: Bone marrow cells or marrow and spleen cell mixtures were incubated in PBS with or without 250 micro-M Leu-Leu-OMe as above and then infused into 950 cGy irradiated syngeneic recipients. 5 d later, splenic 5-iodo-2'-deoxyuridine-^125 I (^125 I-UdR) uptake was measured as previously described (15).
To assay the effects of Leu-Leu-OMe on hemopoietic stem cells, we incubated marrow or mixtures of marrow and spleen cells in PBS with or without Leu-Leu-OMe and measured splenic ^125 I-UdR uptake 5 d after transplantation into irradiated syngeneic recipients (18). […] Since human marrow obtained for use in transplantation has variable amounts of peripheral blood contamination, we also studied the stem cell function of a mixture of murine spleen and marrow incubated with Leu-Leu-OMe. […] Histological studies were conducted of spleens from irradiated mice. B6 mice were irradiated with 950 cGy and given no marrow (irradiation control), or given syngeneic bone marrow cells that had been incubated in PBS with or without 250 micro-M Leu-Leu-OMe. 5 d later spleens were examined histologically. Irradiation control spleens were sparsely populated, with no hemopoietic elements. Recipients of marrow treated with 250 micro-M Leu-Leu-OMe had the vast majority of their splenic red pulp packed with erythroblasts, but also had numerous peritrabecular areas containing megakaryocytes and granulocytic elements.

## COC(=O)[C@H](CC(C)C)NC(=O)[C@@H](N)CC(C)C [Leu-Leu-OMe, L-leucyl-L-leucine methyl ester]
[1]; 25-50 micromolar
  51Cr release: minimal ^51 Cr release
[1]; M--phi
  Leu--Leu--OMe Sensitivity (LD50): 75 micro-M
[2]; N-SRBC positive cells depleted of OKT4 positive cells
  51Cr release: produced high levels of ^51 Cr release
[2]; T-8 Cells
  Leu--Leu--OMe Sensitivity (LD50): 250 micro-M
[3]; 1000 micromolar
  51Cr release: caused minimal ^51 Cr release
[3]; T4 Cells
  Leu--Leu--OMe Sensitivity (LD50): > 500 micro-M
[4]
  51Cr release and proliferative rate: no significant ^51 Cr release or alteration in subsequent proliferative rate
[5]; 1 mM, some EBV lines
  51Cr release: less than 20%
[5]; 250 micromolar, other lines
  51Cr release: 25-35%
[5]; less than 250 micromolar
  toxicity (51Cr release): no significant toxicity
[6]
  51Cr release and proliferative rate: no significant ^51 Cr release or alteration in subsequent proliferative rate
[7]
  concentration above which extensive 51Cr release and no viable proliferating cell: more than 250 micromolar
[7]; concentration-dependent
  toxicity (51Cr release): susceptible to concentration-dependent Leu-Leu-OMe toxicity
[8]
  toxicity (51Cr release): no detectable Leu-Leu-OMe toxicity over a broad concentration range
[9]; 100 micromolar or lower
  51Cr release and proliferative rate: no significant ^51 Cr release or alteration in subsequent proliferative rate
[9]; higher than 100 micromolar
  51Cr release and proliferative capacity: modest amounts of ^51 Cr release and partial loss of proliferative capacity
[10]
  effect on stem cell function, in words: had no deleterious effect on this measure of stem cell function
